This is an account of results in ChEMBL document CHEMBL1201862, “PubChem BioAssay data set” (2004).

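How tested: cells in 96-well plates exposed to compound for 48 hours at five concentrations. The concentration for 50% growth inhibition is given as GI50.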 The source made the active and inactive calls. Rule as the data show it: active = GI50 up to about 1.1 µM and inactive = higher. Some results are limits rather than exact numbers.

Some test systems named below: A498; HCC 2998; HL-60; HOP-92; HT-29; LOX IMVI; M14; MCF7; NCI-H23; OVCAR-3; SF-539; SR; SW-620; TK-10; UO-31; HCT-116; NCI-H226; SF-268; SN12C; DMS-273.
Holding throughout (test): DTP human tumour cell line panel, 48 h

Broadly, the GI50 is the concentration that inhibits growth by half.

For the compound `CCOC(=O)c1csc(NC(=O)C(C)N2CCOCC2)n1` (stereo unspecified), the GI50 in the assay on A498, in the assay on HCC 2998, with HL-60, in the assay with HOP-92, with HT-29 and in the assay with LOX IMVI was > 100 µM (inactive) in each case. Further, the GI50 with M14, with MCF7, in the assay on NCI-H23, with OVCAR-3, in the assay on SF-539 and with SR was > 100 µM (inactive) in each case. Also, the GI50 in the assay with SW-620, in the assay on TK-10 and in the assay with UO-31 was > 100 µM (inactive) in each case.
Turning to `CSc1ncc2c(n1)-c1ccccc1OC2NC1CC1` (stereo unspecified), the GI50 in the assay on A498 was 13.7 µM (inactive); in the assay with HCT-116 it was 64.1 µM (inactive); with HL-60, 30.2 µM (inactive); in the assay on HOP-92 it was 43.9 µM (inactive); in the assay on HT-29, > 100 µM (inactive); with LOX IMVI, 92 µM (inactive). The GI50 in the assay with M14 was > 100 µM (inactive); in the assay with MCF7 it was 58.3 µM (inactive); in the assay with NCI-H226, 25.5 µM (inactive); in the assay on NCI-H23, 73.6 µM (inactive); in the assay on OVCAR-3, 57.5 µM (inactive); in the assay on SF-268, 92.7 µM (inactive). Further, the GI50 is > 100 µM (inactive) in the assay on SF-539; 63.5 µM (inactive) in the assay with SN12C; > 100 µM (inactive) in the assay on SR; > 100 µM (inactive) in the assay on SW-620; 32.7 µM (inactive) in the assay with TK-10; 33.2 µM (inactive) in the assay on UO-31.
Take `COc1ccc(CNc2nc3cc(C(F)(F)F)ccc3nc2C(=O)O)cc1OC`: the GI50 in the assay on A498 was 27.5 µM (inactive); in the assay with HCC 2998 it was 36 µM (inactive); in the assay with HCT-116, 29 µM (inactive); in the assay on HOP-92, 27.2 µM (inactive); with HT-29, 35.6 µM (inactive); in the assay on LOX IMVI, 33.7 µM (inactive). Moreover, the GI50 with M14 was 32 µM (inactive); in the assay with MCF7 it was 23.2 µM (inactive); in the assay with NCI-H226, 64.1 µM (inactive); in the assay on NCI-H23 it was 33.4 µM (inactive); with OVCAR-3, 22.3 µM (inactive); with SF-539, 32.5 µM (inactive). Besides, the GI50 with SN12C was 26.8 µM (inactive); with SR, 23.9 µM (inactive); in the assay on SW-620, 43.5 µM (inactive); in the assay on UO-31, 28.3 µM (inactive).
`CC(=O)N1C(=O)/C(=C\C(=O)c2ccc(Cl)cc2)c2ccccc21`: the GI50 in the assay with A498 was 19.2 µM (inactive); in the assay on HCC 2998 it was 15.9 µM (inactive); in the assay with HCT-116 it was 9.29 µM (inactive); in the assay with HL-60, 2.28 µM (inactive); in the assay on HOP-92, 18.3 µM (inactive); with HT-29, 4.32 µM (inactive). The GI50 in the assay on LOX IMVI is 2.3 µM (inactive); in the assay on M14, 16.5 µM (inactive); with MCF7, 21 µM (inactive); with NCI-H226 it was 19.9 µM (inactive); in the assay with NCI-H23 it was 15.6 µM (inactive); in the assay with OVCAR-3, 10.1 µM (inactive). For the same compound, the GI50 with SF-268 is 18 µM (inactive); in the assay on SF-539 it was 12.2 µM (inactive); with SN12C, 15.3 µM (inactive); in the assay on SR, 2.48 µM (inactive); in the assay with SW-620, 4.24 µM (inactive); with TK-10 it was 15.6 µM (inactive). In the assay with UO-31, the GI50 is 15.4 µM (inactive).
`CC(=O)O[C@H]1CC[C@@]2(C)C(=CC[C@H]3[C@@H]4C[C@H](N5CCN(C)CC5)[C@H](OC(C)=O)[C@@]4(C)CC[C@@H]32)C1`: the GI50 was 20.9 µM (inactive) in the assay with A498; 15.5 µM (inactive) in the assay with HCC 2998; 12.9 µM (inactive) in the assay on HCT-116; 2.44 µM (inactive) in the assay with HL-60; 25.4 µM (inactive) with HOP-92; 3.6 µM (inactive) in the assay on HT-29. In addition, the GI50 with LOX IMVI was 3.03 µM (inactive); in the assay with M14, 3.27 µM (inactive); in the assay on MCF7, 5.64 µM (inactive); with NCI-H226, 28.9 µM (inactive); in the assay with NCI-H23, 22.9 µM (inactive); with OVCAR-3, 8.47 µM (inactive). The GI50 in the assay on SF-268 was 20 µM (inactive); with SF-539, 4.26 µM (inactive); in the assay on SN12C, 24 µM (inactive); with SR, 4.68 µM (inactive); with SW-620, 15.5 µM (inactive); with TK-10, > 100 µM (inactive). Besides, the GI50 in the assay with UO-31 was > 53 µM (inactive).
In the case of `Cc1cc(C)c2c(c1)CC1(Cc3c(C)ccc(C)c3C1=O)C2=O` (stereo unspecified), the GI50 in the assay with A498, in the assay with HCC 2998, with HL-60, with HOP-92, in the assay with M14 and in the assay on MCF7 was > 100 µM (inactive) throughout. Further, the GI50 in the assay on NCI-H226, in the assay with OVCAR-3, in the assay with SF-268, with SF-539, in the assay on SN12C and in the assay on SR was > 100 µM (inactive) each time. Moreover, the GI50 in the assay on SW-620 and in the assay on TK-10 was > 100 µM (inactive) in each case.
As for `CN(C)CCCNC(=O)c1c(-c2cccnc2)cnc2ccccc12`, the GI50 in the assay with HCC 2998, in the assay on HCT-116, in the assay on HL-60, with HOP-92, in the assay on HT-29 and with M14 was > 100 µM (inactive) throughout. The GI50 in the assay on MCF7, in the assay with NCI-H226, in the assay with NCI-H23, in the assay with OVCAR-3, in the assay with SF-268 and in the assay on SF-539 was > 100 µM (inactive) in each case. The GI50 with SN12C, with SR, in the assay on SW-620, in the assay with TK-10 and with UO-31 was > 100 µM (inactive) in each case.
For `CC(C)(CO)NC(=O)c1cccc(C(=O)NC(C)(C)CO)c1Br`, the GI50 in the assay on HCC 2998, in the assay with HCT-116, in the assay on HL-60, with HOP-92, in the assay on HT-29 and in the assay on LOX IMVI was > 100 µM (inactive) throughout. The GI50 with M14, in the assay with MCF7, in the assay with NCI-H226, in the assay with NCI-H23, in the assay on SF-268 and in the assay with SF-539 was > 100 µM (inactive) each time. Moreover, the GI50 in the assay with SR, in the assay on SW-620, with TK-10 and in the assay with UO-31 was > 100 µM (inactive) each time.
`COC(C/C(=C/CO[Si](C(C)C)(C(C)C)C(C)C)C(=O)N(C(=O)OC(C)(C)C)c1ccccc1I)OC`: the GI50 in the assay on A498 is > 100 µM (inactive); with HCC 2998, 40.6 µM (inactive); with HCT-116, 11.8 µM (inactive); in the assay on HOP-92 it was 2.16 µM (inactive); in the assay with HT-29, > 100 µM (inactive); in the assay with LOX IMVI, 18.2 µM (inactive). In addition, the GI50 with M14 was 47.2 µM (inactive); in the assay with MCF7, 18.7 µM (inactive); in the assay on NCI-H226, > 100 µM (inactive); in the assay on NCI-H23, 39.7 µM (inactive); in the assay on OVCAR-3, 29.2 µM (inactive); in the assay on SF-268, > 100 µM (inactive). Further, the GI50 is 52 µM (inactive) with SN12C; 34.4 µM (inactive) in the assay with SR; 59.3 µM (inactive) in the assay with SW-620; 49 µM (inactive) in the assay with TK-10; 42.1 µM (inactive) in the assay on UO-31.
As for `CC(C)c1ccccc1SC1CC(=O)CC(Sc2ccccc2C(C)C)C12O[C@H](c1ccccc1)[C@@H](c1ccccc1)O2` (stereo partly specified), the GI50 was > 100 µM (inactive) with A498; 36 µM (inactive) in the assay with HCC 2998; 32.7 µM (inactive) with HCT-116; 12.3 µM (inactive) with HL-60; 95.9 µM (inactive) with HOP-92; 58.5 µM (inactive) in the assay on HT-29. Also, the GI50 in the assay with LOX IMVI was 30.1 µM (inactive); in the assay with M14, 21.5 µM (inactive); in the assay on MCF7 it was 34 µM (inactive); in the assay with NCI-H23, 36.8 µM (inactive); in the assay on OVCAR-3, 32.2 µM (inactive); in the assay with SF-539, 57.1 µM (inactive). Further, the values for the GI50 in the assay on SN12C, with SW-620 and in the assay with TK-10 were 22.6 µM (inactive), 39.2 µM (inactive) and 85.9 µM (inactive), respectively.
In the case of `CNC(=S)N/N=C(/C)CCC/C(C)=N/NC(=S)NC`, the GI50 in the assay on A498 was > 75 µM (inactive); in the assay on HL-60, > 100 µM (inactive); in the assay on HOP-92, > 100 µM (inactive); in the assay with HT-29, 0.499 µM (active); in the assay on LOX IMVI, 1.8 µM (inactive); in the assay on M14, > 100 µM (inactive). Moreover, the concentration for 50% growth inhibition (GI50) in the assay with MCF7 was 0.151 µM (active); with NCI-H226 it was > 61.7 µM (inactive); with NCI-H23, > 100 µM (inactive); with OVCAR-3 it was 0.411 µM (active); in the assay on SF-268 it was > 35.2 µM (inactive); with SF-539, > 100 µM (inactive). Also, the GI50 with SN12C was > 74.5 µM (inactive); in the assay with SR it was 3.89 µM (inactive); with TK-10, > 100 µM (inactive); in the assay on UO-31 it was > 54.8 µM (inactive).
Consider `C[n+]1ccc(Nc2ccc(NC(=O)c3ccc(Nc4cc[n+](C)c5ccc([N+](=O)[O-])cc45)cc3[N+](=O)[O-])cc2)cc1`, for which the GI50 in the assay on A498 is 36.7 µM (inactive); in the assay on DMS-273, 34.9 µM (inactive); in the assay with HCC 2998, > 100 µM (inactive); with HCT-116, 31.1 µM (inactive); with HOP-92, 22.8 µM (inactive); with LOX IMVI, > 68.2 µM (inactive). The GI50 with NCI-H226 is > 56.1 µM (inactive); with NCI-H23, > 55.6 µM (inactive); with OVCAR-3, 18.9 µM (inactive); in the assay with SF-268, 40.6 µM (inactive); in the assay on SF-539, 22.8 µM (inactive); in the assay with SN12C, 57.4 µM (inactive). Moreover, the GI50 in the assay with SW-620 was > 100 µM (inactive); with UO-31 it was 45.3 µM (inactive).
